# Experimental data taken from paper PMC11344421, “Polyphyllin I exerts anti-hepatocellular carcinoma activity by targeting ZBTB16 to activate the PPARγ/RXRα signaling pathway” (Chinese Medicine, 2024).
# Biological target: T1, recombinant human (rh) ZBTB16 protein (Homo sapiens, UniProt Q05516)
# T1 construct: recombinant human protein immobilised on sensor
# T1 sequence (Q05516 1-673): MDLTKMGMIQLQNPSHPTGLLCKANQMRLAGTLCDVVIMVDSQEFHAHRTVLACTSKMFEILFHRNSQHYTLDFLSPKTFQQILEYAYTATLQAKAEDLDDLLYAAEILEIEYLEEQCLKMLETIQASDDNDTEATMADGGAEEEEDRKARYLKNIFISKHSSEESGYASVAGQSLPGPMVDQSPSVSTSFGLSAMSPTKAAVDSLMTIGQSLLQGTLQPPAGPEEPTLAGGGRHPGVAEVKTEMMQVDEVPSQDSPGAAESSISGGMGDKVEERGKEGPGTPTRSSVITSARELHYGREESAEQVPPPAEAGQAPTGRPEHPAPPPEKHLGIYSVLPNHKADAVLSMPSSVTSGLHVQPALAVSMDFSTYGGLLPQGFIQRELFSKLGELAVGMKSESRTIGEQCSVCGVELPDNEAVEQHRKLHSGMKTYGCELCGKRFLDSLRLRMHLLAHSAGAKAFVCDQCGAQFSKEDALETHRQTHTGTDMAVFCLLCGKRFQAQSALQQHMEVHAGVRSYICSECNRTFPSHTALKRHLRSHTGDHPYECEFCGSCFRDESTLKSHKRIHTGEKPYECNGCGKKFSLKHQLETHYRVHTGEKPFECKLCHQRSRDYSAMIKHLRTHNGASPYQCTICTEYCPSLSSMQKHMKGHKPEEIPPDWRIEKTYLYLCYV
# Experiment: surface plasmon resonance (OpenSPR, ZBTB16 immobilised by EDC/NHS)
# Assay type: binding
structure (smiles),measurement,value
C[C@@H]1CC[C@@]2(OC1)O[C@H]1C[C@H]3[C@@H]4CC=C5C[C@@H](O[C@@H]6O[C@H](CO)[C@@H](O[C@@H]7O[C@@H](CO)[C@H](O)[C@H]7O)[C@H](O)[C@H]6O[C@@H]6O[C@@H](C)[C@H](O)[C@@H](O)[C@H]6O)CC[C@]5(C)[C@H]4CC[C@]3(C)[C@H]1[C@@H]2C [Polyphyllin I],Kd,5.5 µM
